Test results: patent publication US20220411380A1, “ACID ADDITION SALT OF RORy REGULATOR” (JIANGSU HENGRUI MEDICINE CO., LTD., priority 2019, published 2022)

Legend:
[1] = Influencing factor study of amorphous form of compound of formula II; type: physicochemical
Protocol: A sample of the amorphous form of the compound of formula II (Example 4) was let stand open to examine the stability of the sample in conditions of heating (40° C. and 60° C.), illumination (4500 Lux) and high humidity (RH 75% and RH 90%) in a period of 30 days.

[2] = Long-term/accelerated stability study of amorphous form of compound of formula II; type: physicochemical
Protocol: The amorphous form of the compound of formula II (Example 4) was subjected to a long-term (25° C., 60% RH)/accelerated (40° C., 75% RH) stability study with a period of 3 months.

[3] = as above; type: physicochemical; remark: listed apart in the source
RORγ LBD-GST tagged = target: T1, RORγ LBD-GST tagged (Homo sapiens, UniProt P51449); test: LanthaScreen TR-FRET RORγ-LBD and co-activation peptide biochemical assay; conditions: Fluorescein-D22 coactivator, read-out: RORγ coactivation assay (IC50)
T1 construct: RORγ LBD-GST tagged (Cat No. RORC-114H, Creative Biomart); purchased Creative Biomart RORC-114H
T1 sequence (P51449 269-508 limits assumed): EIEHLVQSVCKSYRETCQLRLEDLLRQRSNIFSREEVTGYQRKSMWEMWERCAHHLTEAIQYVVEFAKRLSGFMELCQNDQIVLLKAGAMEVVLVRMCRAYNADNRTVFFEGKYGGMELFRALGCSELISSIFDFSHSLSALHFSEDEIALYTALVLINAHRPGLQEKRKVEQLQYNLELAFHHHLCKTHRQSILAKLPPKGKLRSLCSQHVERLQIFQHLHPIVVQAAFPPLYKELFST
Protocol: Test Example 1. Biochemical Assay of LanthaScreen TR-FRET RORγ-LBD and Co-Activation Peptide
Complete TR-FRET Coregulator Buffer D was prepared by diluting 1 M DTT with TR-FRET Coregulator Buffer D to a final concentration of 5 mM DTT. The compounds were diluted in Complete TR-FRET Coregulator Buffer D. The solutions were serially 7-fold diluted from an initial concentration of 3 μM to the 7th concentration. 10 μL of the dilutions was added to each well of the 384-well plate. For negative and positive controls, 10 μL of Complete TR-FRET Coregulator Buffer D was added.
A RORγ LBD solution was prepared using Complete TR-FRET Coregulator Buffer D. The final concentration of the RORγ LBD solution in each reaction was 25 ng. Other than the negative wells receiving 5 μL of Complete TR-FRET Coregulator Buffer D, 5 μL of the RORγ LBD solution was added to the remaining wells of the 384-well assay plate.
Complete TR-FRET Coregulator Buffer D was used to prepare a solution containing 0.6 μM Fluorescein-D22 and 8 nM Tbanti-GST antibody, and 5 μL of the prepared solution was added to all wells of the 384-well assay plate. […]
The plate was measured on a Tecan Infinite M1000 plate reader at wavelengths of 520 nm and 495 nm. IC50 values were calculated using GraphPad Prism by plotting log compound concentration versus percentage inhibition.

[4] = system: IL-17A production in human peripheral blood mononuclear cells; test: Inhibition of cytokine IL-17A production in human peripheral blood mononuclear cells; type: cell-based; conditions: 72 h; human PBMC, cytostim, 3 days, IL-17A ELISA
Protocol: Test Example 2. Assay for Inhibiting Cytokine IL-17A Production in Human Peripheral Blood Mononuclear Cells
Frozen human peripheral blood mononuclear cells (PBMCs) were rapidly thawed in a pre-warmed lymphocyte medium and centrifuged at 1000 rpm for 10 min. The cell culture supernatant was discarded, and the cells were gently suspended in the TexMACS medium and counted. T cell activating reagent cytostim (10 μL/mL) was added to the cell suspension in certain proportions, and then the cells were seeded in a 96-well cell culture plate at a density of 1×10^5 PBMCs/well. Test compounds were diluted in gradient using TexMACS medium and added to the treatment wells in 2-3 replicates. Negative control wells containing cells only without cytostim were prepared to obtain background readings. The cell culture plate was incubated in a 5% carbon dioxide/37° C. incubator for 3 days. Cell culture supernatant was collected 3 days after treatment and centrifuged to remove the suspended matter. IL-17A in the supernatant was then quantified using an IL-17A enzyme-linked immunosorbent assay kit. […]
In the calculation equation, inhibition % is inhibition rate; OD(NC) is the reading of cells in negative control groups with no cytostim and no compound; OD(PC) is the reading of cells in positive control groups with cytostim but no compound; OD(compound) is the reading of cells with cytostim and compound.

SMILES: NC(=O)C[C@H](c1ccc(S(=O)(=O)CC2CC2)cc1)c1nc2cc(-c3ccccc3OC(F)F)c(Cl)cc2[nH]1 [amorphous form of compound of formula II]
- Amorphous form Purity (%) ([1]; 40° C., 5 days): 99.93%
- Color and appearance ([1]; 40° C., 5 days): White solid
- Amorphous form Purity (%) ([1]; 40° C., 10 days): 99.90%
- Chiral purity ([1]; 40° C., 10 days): 99.4
- Color and appearance ([1]; 40° C., 10 days): White solid
- Amorphous form Purity (%) ([1]; 40° C., 30 days): 99.92%
- Chiral purity ([1]; 40° C., 30 days): 99.5
- Color and appearance ([1]; 40° C., 30 days): White solid
- Amorphous form Purity (%) ([1]; 60° C., 5 days): 99.95%
- Color and appearance ([1]; 60° C., 5 days): White solid
- Amorphous form Purity (%) ([1]; 60° C., 10 days): 99.95%
- Chiral purity ([1]; 60° C., 10 days): 99.4
- Color and appearance ([1]; 60° C., 10 days): White solid
- Amorphous form Purity (%) ([1]; 60° C., 30 days): 99.95%
- Chiral purity ([1]; 60° C., 30 days): 99.4
- Color and appearance ([1]; 60° C., 30 days): White solid
- Amorphous form Purity (%) ([1]; 4500 Lux, 5 days): 99.91%
- Color and appearance ([1]; 4500 Lux, 5 days): White solid
- Amorphous form Purity (%) ([1]; 4500 Lux, 10 days): 99.91%
- Chiral purity ([1]; 4500 Lux, 10 days): 99.3
- Color and appearance ([1]; 4500 Lux, 10 days): White solid
- Amorphous form Purity (%) ([1]; 4500 Lux, 30 days): 99.93%
- Chiral purity ([1]; 4500 Lux, 30 days): 99.3
- Color and appearance ([1]; 4500 Lux, 30 days): White solid
- Stability (conclusion of influencing factor study) ([1]; 30 days, illumination, 40° C., 60° C., high humidity of 75% and 90%): good chemical stability
- Amorphous form Purity (%) ([1]; Initial, 0 days): 99.91%
- Chiral purity ([1]; Initial, 0 days): 99.4
- Color and appearance ([1]; Initial, 0 days): White solid
- Amorphous form Purity (%) ([1]; RH 75%, 5 days): 99.92%
- Color and appearance ([1]; RH 75%, 5 days): White solid
- Weight gain (%) ([1]; RH 75%, 5 days): 10.42%
- Amorphous form Purity (%) ([1]; RH 75%, 10 days): 99.90%
- Chiral purity ([1]; RH 75%, 10 days): 99.3
- Color and appearance ([1]; RH 75%, 10 days): White solid
- Weight gain (%) ([1]; RH 75%, 10 days): 13.2%
- Amorphous form Purity (%) ([1]; RH 75%, 30 days): 99.90%
- Chiral purity ([1]; RH 75%, 30 days): 99.4
- Color and appearance ([1]; RH 75%, 30 days): White solid
- Weight gain (%) ([1]; RH 75%, 30 days): 23.24%
- Amorphous form Purity (%) ([1]; RH 90%, 5 days): 99.91%
- Color and appearance ([1]; RH 90%, 5 days): White solid
- Weight gain (%) ([1]; RH 90%, 5 days): 21.67%
- Amorphous form Purity (%) ([1]; RH 90%, 10 days): 99.92%
- Chiral purity ([1]; RH 90%, 10 days): 99.4
- Color and appearance ([1]; RH 90%, 10 days): White solid
- Weight gain (%) ([1]; RH 90%, 10 days): 26.49%
- Amorphous form Purity (%) ([1]; RH 90%, 30 days): 99.89%
- Chiral purity ([1]; RH 90%, 30 days): 99.4
- Color and appearance ([1]; RH 90%, 30 days): White solid
- Weight gain (%) ([1]; RH 90%, 30 days): 37.24%
- Stability (conclusion of long-term/accelerated study) ([2]; 25° C., 60% RH and 40° C., 75% RH, 3 months): good chemical stability
- Chiral purity Initial ([2]; 25° C., 60% RH, Initial): 99.2
- Purity Initial ([2]; 25° C., 60% RH, Initial): 99.87
- Purity (%) Month 1 ([2]; 25° C., 60% RH): 99.86%
- Purity (%) Month 2 ([2]; 25° C., 60% RH, Month 2): 99.86%
- Chiral purity Initial ([2]; 40° C., 75% RH, Initial): 99.2
- Purity (%) Month 1 ([2]; 40° C., 75% RH): 99.87%
- Chiral purity (%) Month 3 ([2]; 40° C., 75% RH, Month 3): 99.1%
- Purity (%) Month 3 ([2]; 40° C., 75% RH, Month 3): 99.88%
- Chiral purity Initial ([3]; 5° C., Initial): 99.2
- Purity Initial ([3]; 5° C., Initial): 99.87
- Purity (%) Month 1 ([3]; 5° C., Month 1): 99.86%
- Purity (%) Month 2 ([3]; 5° C.): 99.86%
- Chiral purity (%) Month 3 ([3]; 5° C.): 99.1%
- Purity (%) Month 3 ([3]; 5° C.): 99.85%
- Chiral purity (%) Month 3 ([3]; 25° C., 60% RH): 99.2%
- Purity (%) Month 3 ([3]; 25° C., 60% RH): 99.85%
- Purity Initial ([3]; 40° C., 75% RH, Initial): 99.87
- Purity (%) Month 2 ([3]; 40° C., 75% RH): 99.86%

SMILES: NC(=O)C[C@H](c1ccc(S(=O)(=O)CC2CC2)cc1)c1nc2cc(-c3ccccc3OC(F)F)c(Cl)cc2[nH]1 (single isomer, unassigned) [compound of formula II]
- IC50 (RORγ LBD-GST tagged): 13 nM
- IC50 [4]: 10 nM
